Reference: paper PMC7320011, “Rationally designed ruthenium complexes for 1- and 2-photon photodynamic therapy” (Nature Communications, 2020)
Like-named read-outs stand apart in the source and are kept apart here.

Assays:
[1] = system: noncancerous retinal pigment epithelium (RPE-1) cells; assay: (Photo-)cytotoxicity on 2D cell monolayers, RPE-1; conditions: for PI (480 nm): RPE-1, dark vs 480 nm; for PI (540 nm): RPE-1, dark vs 540 nm; for IC50: 1-3 as chloride salts
[2] = Emission and luminescence quantum yield; assay type: physicochemical; conditions: acetonitrile
Procedure: The absorption spectra of the sample was measured with a SpectraMax M2 Spectrometer (Molecular Devices). For the measurements of the emission, the sample was irradiated at 355 nm with a NT342B Nd-YAG pumped optical parametric oscillator (Ekspla). The emission was focused at right angle to the excitation pathway and directed to a Princeton Instruments Acton SP-2300i monochromator. The signal was detected with a XPI-Max 4 CCD camera (Princeton Instruments).
The sample was prepared in an acetonitrile solution with an absorption of 0.1 at 355 nm. The sample was irradiated at 355 nm with a NT342B Nd-YAG pumped optical parametric oscillator (Ekspla). The emission was focused at right angle to the excitation pathway and directed to a Princeton Instruments Acton SP-2300i monochromator. The signal was detected with a XPI-Max 4 CCD camera (Princeton Instruments). The luminescence quantum yields were determined by comparison with the reference [Ru(2,2′-bipyridine)3]Cl2 in acetonitrile (Φem = 5.9%)[58] applying the following formula:2 Φem,sample=Φem,reference×Freference/Fsample×Isample/Ireference×nsample/nreference^2, 3 F=1−10^-A. Φem = luminescence quantum yield, F = fraction of light absorbed, I = integrated emission intensities, n = refractive index, A = absorbance of the sample at irradiation wavelength.

[3] = Singlet oxygen quantum yield, direct evaluation (1O2 phosphorescence); assay type: physicochemical
Procedure: Direct evaluation: the sample was prepared in an air-saturated acetonitrile or deuterated water solution with an absorption of 0.2 at 450 nm. The sample was irradiated at 450 nm with a mounted M450LP1 LED (Thorlabs), whose light was focused with aspheric condenser lenses. Using a T-Cube LED Driver (Thorlabs), the intensity of the irradiation was varied and monitored with an optical power and energy meter. The emission was focused at right angle to the excitation pathway and directed to a Princeton Instruments Acton SP-2300i monochromator. To cut off light at wavelengths shorter than 850 nm, a longpass glass filter was placed in front of the monochromator entrance slit. The signal was detected with an EO-817L IR-sensitive liquid-nitrogen cooled germanium diode detector (North Coast Scientific Corp.). The luminescence signal, centered at 1270 nm, was measured from 1100 to 1400 nm. The obtained data were analyzed upon plotting the integrated luminescence peaks against the percentage of the irradiation intensity. The slope of the linear regression was calculated and compared with the reference Rose Bengal (Φ = 76%)[59]. The absorption of the sample was corrected with an absorption correction factor. The singlet oxygen quantum yields were calculated using the following formula:4 Φsample=Φreference×Ssample/Sreference×Ireference/Isample, 5 I=I0×1−10^-A.
Φ = singlet oxygen quantum yield, S = slope of the linear regression of the plot of the areas of the singlet oxygen luminescence peaks against the irradiation intensity, I = absorption correction factor, I0 = light intensity of the irradiation source, and A = absorption of the sample at irradiation wavelength.

[4] = system: human glioblastoma astrocytoma (U373) cells;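 also: Resazurin-to-resorufin fluorescence viability readout, 8 h compound exposure then medium change, light dose 3.1 J cm^−2 at 480 nm or 9.5 J cm^−2 at 540 nm, analysed 40 h later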
[5] = Two-photon absorption cross section; assay type: physicochemical; conditions: dichloromethane
Procedure: The two-photon absorption cross section spectra of the sample was determined upon direction comparison to Rhodamine B. The sample was irradiated with an OpoletteTM 355II (pulse width ≤ 100 fs, 80 MHz repetition rate, Spectra Physics Inc.) laser. The experimental excitation and detection conditions were conducted with negligible reabsorption processes, which could affect two-photon absorption measurements. The quadratic dependence of the two-photon induced luminescence intensity on the excitation power was verified at an excitation wavelength of 800 nm. The two-photon absorption cross section was calculated using the following equation:1 σ2,sample=σ2,reference×Φreference×creference×Isample×nsample/Φsample×csample×Ireference×nreference,
σ2 = two-photon cross section, Φ = luminescence quantum yield, c = concentration, I = integrated luminescence intensity, n = refractive index

[6] = system: mouse colon carcinoma (CT-26) cells; assay: (Photo-)cytotoxicity on 2D cell monolayers, CT-26; conditions: for PI (480 nm): CT-26, dark vs 480 nm; for PI (540 nm): CT-26, dark vs 540 nm; for IC50: 1-3 as chloride salts
Procedure: (§1) A total of 4 × 10^3 cells were seeded on 96-well plates and allowed to adhere overnight. The cells were treated with increasing concentrations of the sample diluted in cell media achieving a total volume of 200 μL. The cells were incubated with the sample for 8 h and, after this time, the medium refreshed. To study the phototoxic effect of the sample, the cells were exposed to 480 nm (spectral half-width: 20 nm, 10 min, 5.2 mW cm^−2, 3.1 J cm^−2) or 540 nm (spectral half-width: 30 nm, 40 min, 4.0 mW cm^−2, 9.5 J cm^−2) light using an Atlas Photonics LUMOS BIO irradiator. To study the dark cytotoxicity of the sample, the cells were not irradiated and the medium exchanged. The cells were grown for an additional 40 h at 37 °C. After this time, the medium was replaced with fresh medium containing resazurin with a final concentration of 0.2 mg mL^−1. The cells were incubated for 4 h and the amount of the fluorescent product resorufin determined (λex = 540 nm, λem = 590 nm) with a SpectraMax M2 Microplate Reader (Molecular Devices). The obtained data was analyzed with the GraphPad Prism software.

[7] = Excited state lifetime; assay type: physicochemical; conditions: for τ air, excited state lifetime: air saturated acetonitrile; for τ degassed, excited state lifetime: degassed acetonitrile
Procedure: The sample was prepared in an air saturated as well as a degassed acetonitrile solution with an absorption of 0.2 at 355 nm. The sample was irradiated at 355 nm with a NT342B Nd-YAG pumped optical parametric oscillator (Ekspla). The emission was focused at right angle to the excitation pathway and directed to a Princeton Instruments Acton SP-2300i monochromator. The signal was detected with a R928 photomultiplier tube (Hamamatsu).

[8] = system: human cervical carcinoma (HeLa) cells; assay: (Photo-)cytotoxicity on 2D cell monolayers, HeLa; assay type: cell-based; conditions: for IC50: 1-3 as chloride salts; for PI (540 nm): dark vs 540 nm; for PI (480 nm): dark vs 480 nm
Procedure: as §1

[9] = system: human glioblastoma astrocytoma (U373) cells; assay: (Photo-)cytotoxicity on 2D cell monolayers, U373; conditions: for PI (480 nm): U373, dark vs 480 nm; for PI (540 nm): U373, dark vs 540 nm; for IC50: 1-3 as chloride salts;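 as to all read-outs here: Resazurin-to-resorufin fluorescence viability readout, 8 h compound exposure then medium change, light dose 3.1 J cm^−2 at 480 nm or 9.5 J cm^−2 at 540 nm, analysed 40 h later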
[10] = Photostability (absorption spectra upon irradiation); assay type: physicochemical; conditions: 450 nm, 0 to 10 min (13.2 J cm^−2), air-saturated acetonitrile
Procedure: The sample was prepared in an air-saturated acetonitrile solution. Using a Atlas Photonics LUMOS BIO irradiator, the sample was constantly irradiated at 450 nm in time intervals from 0 to 10 min (13.2 J cm^−2). The absorption spectra from 350 to 700 nm was monitored with a SpectraMax M2 Microplate Reader (Molecular Devices) at each time interval. As positive and negative controls, respectively, [Ru(2,2′-bipyridine)3]Cl2 and Protoporphyrin IX were used.

[11] = system: mouse colon carcinoma (CT-26) cells
Procedure: as §1

[12] = read-out: IC50 540 nm (40 min, 9.5 J cm-2), RPE-1, 540 nm
[13] = read-out: IC50 dark, RPE-1, dark
[14] = read-out: IC50 540 nm (40 min, 9.5 J cm-2), CT-26, 540 nm
[15] = read-out: IC50 dark, CT-26, dark
[16] = 480 nm, read-out: IC50 480 nm (10 min, 3.1 J cm-2)
[17] = 540 nm, read-out: IC50 540 nm (40 min, 9.5 J cm-2)
[18] = read-out: IC50 480 nm (10 min, 3.1 J cm-2), U373, 480 nm
[19] = read-out: IC50 dark, U373, dark

Compound	PI (480 nm) [1]	PI (540 nm) [1]	IC50 [1, 12]	IC50 [1, 13]	Φem, luminescence quantum yield [2]	λem, emission maximum [2]	Singlet oxygen quantum yield, Direct 450 nm CH3CN [3]	IC50 [4]	σ2, 2P absorption cross section [5]	PI (480 nm) [6]	PI (540 nm) [6]	IC50 [6, 14]	IC50 [6, 15]	τ air, excited state lifetime [7]	τ degassed, excited state lifetime [7]	IC50 [8, 16]	IC50 [8, 17]	PI (540 nm) [8]	IC50 ([8]; dark, read-out: IC50 dark)	PI (480 nm) [9]	also measured
COc1ccc(/C=C/c2ccnc(-c3cc(/C=C/c4ccc(OC)cc4)ccn3)c2)cc1.COc1ccc(/C=C/c2ccnc(-c3cc(/C=C/c4ccc(OC)cc4)ccn3)c2)cc1.F[P-](F)(F)(F)(F)F.F[P-](F)(F)(F)(F)F.[Ru+2].c1ccc(-c2ccccn2)nc1 [compound 5, [Ru(2,2′-bipyridine)((E,E′)-4,4′-Bis[p-methoxystyryl]-2,2′-bipyridine)2][PF6]2]	> 9.8	> 7.9	12.7 µM	> 100 µM	1.4%	674 nm	54%	17.8 µM	313 GM	> 19.6	> 16.1	6.2 µM	> 100 µM	36 ns	231 ns	6.4 µM	7.9 µM	> 12.7	> 100 µM	> 6.5	PI (540 nm) [9]: > 5.6; IC50 [9, 18]: 15.3 µM; IC50 [9, 19]: > 100 µM; photostability (change of absorption spectra upon irradiation) [10]: no significant differences in the absorption spectra; IC50 [11]: 5.1 µM
CN(C)c1ccc(/C=C/c2ccnc(-c3cc(/C=C/c4ccc(N(C)C)cc4)ccn3)c2)cc1.CN(C)c1ccc(/C=C/c2ccnc(-c3cc(/C=C/c4ccc(N(C)C)cc4)ccn3)c2)cc1.CN(C)c1ccc(/C=C/c2ccnc(-c3cc(/C=C/c4ccc(N(C)C)cc4)ccn3)c2)cc1.F[P-](F)(F)(F)(F)F.F[P-](F)(F)(F)(F)F.[Ru+2] [compound 2, [Ru((E,E′)-4,4′-Bis[p-(N,N-dimethylamino)styryl]-2,2′-bipyridine)3][PF6]2]	> 2.6	> 2.0	49 µM	> 100 µM	> 0.1%	709 nm	18%	61.4 µM	2175 GM	> 2.3	> 1.6	62.5 µM	> 100 µM	48 ns	222 ns	29.4 µM	52.3 µM	> 1.9	> 100 µM	> 2.0	PI (480 nm) [8]: > 3.4; PI (540 nm) [9]: > 1.6; IC50 [9, 18]: 49.1 µM; IC50 [9, 19]: > 100 µM; photostability (change of absorption spectra upon irradiation) [10]: small changes in the absorption spectra; IC50 [11]: 42.6 µM
CN(C)c1ccc(/C=C/c2ccnc(-c3cc(/C=C/c4ccc(N(C)C)cc4)ccn3)c2)cc1.CN(C)c1ccc(/C=C/c2ccnc(-c3cc(/C=C/c4ccc(N(C)C)cc4)ccn3)c2)cc1.F[P-](F)(F)(F)(F)F.F[P-](F)(F)(F)(F)F.[Ru+2].c1ccc(-c2ccccn2)nc1 [compound 4, [Ru(2,2′-bipyridine)((E,E′)-4,4′-Bis[p-(N,N-dimethylamino)styryl]-2,2′-bipyridine)2][PF6]2]	> 9.2	> 6.8	14.7 µM	> 100 µM	0.4%	703 nm	34%	19 µM	838 GM	> 13.7	> 10.4	9.6 µM	> 100 µM	69 ns	417 ns	8.5 µM	10.6 µM	> 9.4	> 100 µM	> 7.0	PI (480 nm) [8]: > 11.8; PI (540 nm) [9]: > 5.3; IC50 [9, 18]: 14.3 µM; IC50 [9, 19]: > 100 µM; photostability (change of absorption spectra upon irradiation) [10]: small changes in the absorption spectra; IC50 [11]: 7.3 µM
